This note sets out measurements from ChEMBL document CHEMBL3085654, “Synthesis and evaluation of N-acylamino acids derivatives of triazenes. Activation by tyrosinase in human melanoma cell lines” (Eur J Med Chem, 2013).

The nature of data set [1]: Octanol-phosphate buffer apparent partition coefficient, log P of the compound at pH7.4 after 30 mins by HPLC analysis. Type of data set: physicochemical. The conditions noted are these: pH 7.4.
Data set [2] can be described thus: Half life in phosphate buffer assessed as mushroom tyrosinase-mediated prodrug conversion at 10^-5 M at pH 7.4 by HPLC analysis. It is filed as ADME. The conditions noted are these: agaricus bisporus, pH 7.4, 10 µM.
The nature of data set [3]: Half life in PBS buffer at 10^-5 M at pH 7.4 by HPLC analysis. Type of data set: ADME.
Data set [4] can be described thus: Half life in 80% human plasma at 10^-5 M by HPLC analysis. It is filed as ADME, cell-free.
Data set [5] concerns SK-MEL-30. Kind of data set: Induction of apoptosis in human SK-MEL-30 cells assessed as apoptotic/necrotic cells at 100 uM after 48 hrs by APC-labeled annexin V and 7-AAD staining-based flow cytometric analysis relative to control. It is filed as functional.
Data set [6] relates to SK-MEL-30. The data set is described as follows: Induction of apoptosis in human SK-MEL-30 cells assessed as apoptotic/necrotic cells at 50 uM after 48 hrs by APC-labeled annexin V and 7-AAD staining-based flow cytometric analysis relative to control. It is filed as functional.
The subject of data set [7] is MNT1. The data set is described as follows: (§1) Induction of apoptosis in human MNT1 cells assessed as apoptotic/necrotic cells at 50 uM after 48 hrs by APC-labeled annexin V and 7-AAD staining-based flow cytometric analysis relative to control. It is filed as functional.
The subject of data set [8] is MNT1. Kind of data set: (§2) Induction of apoptosis in human MNT1 cells assessed as apoptotic/necrotic cells at 100 uM after 48 hrs by APC-labeled annexin V and 7-AAD staining-based flow cytometric analysis relative to control. It is filed as functional. (In general: In flow cytometry, cells or beads pass a laser one at a time.)
In data set [9] the test system is M8. The data set is described as follows: Induction of apoptosis in human M8 cells assessed as apoptotic/necrotic cells at 50 to 100 uM after 48 hrs by APC-labeled annexin V and 7-AAD staining-based flow cytometric analysis. Type of data set: functional, cell-based.
Data set [10] has as its system MNT1. The data set is described as follows: Induction of apoptosis in human MNT1 cells assessed as apoptotic/necrotic cells after 48 hrs by APC-labeled annexin V and 7-AAD staining-based flow cytometric analysis. It is filed as functional, cell-based.
Data set [11] can be described thus: as §1. It is filed as functional.
A short description of data set [12]: as §2. Type of data set: functional.
Data set [13] is described as follows: Stability in phosphate buffer assessed as mushroom tyrosinase-mediated prodrug conversion at 10^-5 M at pH 7.4 after 1 hr by HPLC analysis in presence of mushroom tyrosinase. It is filed as ADME. Particulars: agaricus bisporus, pH 7.4, 1 h, 10 µM.
The nature of data set [14]: Chemical stability in PBS buffer at 10^-5 M at pH 7.4 after 15 days by HPLC analysis. Type of data set: physicochemical. The conditions noted are these: pH 7.4, 360 h, 10 µM.
Substrate in data set [15]: N[C@@H](Cc1ccc(O)cc1)C(=O)O
The data set is described as follows: (§3) Activity at mushroom tyrosinase by Michaelis-Menten plot analysis. The conditions noted are these: Agaricus bisporus.

Substrate in data set [16]: NCCc1ccc(O)c(O)c1
The data set is described as §3. Particulars: Agaricus bisporus.

Substrate in data set [17]: CC(=O)N[C@@H](Cc1ccc(O)cc1)C(=O)N(C)/N=N/c1ccc(C#N)cc1
The description is as §3. Particulars: Agaricus bisporus.

Substrate in data set [18]: COC(=O)c1ccc(/N=N/N(C)C(=O)[C@H](Cc2ccc(O)cc2)NC(C)=O)cc1
The description is as §3. Particulars: Agaricus bisporus.

Substrate in data set [19]: NCCc1ccc(O)cc1
The data set is described as §3. Particulars: Agaricus bisporus.

Substrate in data set [20]: CC(=O)N[C@@H](Cc1ccc(O)cc1)C(=O)N(C)/N=N/c1ccc(C#N)cc1
Kind of data set: (§4) Ratio of Kcat to Km for mushroom tyrosinase. Particulars: Agaricus bisporus.

Substrate in data set [21]: COC(=O)c1ccc(/N=N/N(C)C(=O)[C@H](Cc2ccc(O)cc2)NC(C)=O)cc1
The data set is described as §4. The conditions noted are these: Agaricus bisporus.

Active and inactive are the calls of the source. The calls are words filed in the database; no cut-off is given here.

As to `CC(=O)N[C@@H](Cc1ccc(O)cc1)C(=O)N(C)/N=N/c1ccc(C(N)=O)cc1`, the pH-dependent lipophilicity (logD) at 0.5 h in data set [1] came to 1.27. For the same molecule, in data set [2], the t1/2 is 0.29 h. For the same molecule, the half-life at 10 µM in data set [3] is 40.6 h; in data set [4], 5.19 h.
Regarding `Cn1nnc2c(C(N)=O)ncn2c1=O`, the result in data set [5], in data set [6], in [7], in data set [8] and in data set [9] was Active.
Turning to `CC(=O)N[C@@H](Cc1ccc(O)cc1)C(=O)N(C)/N=N/c1ccc(C(C)=O)cc1`, in data set [1], the pH-dependent lipophilicity (logD) at 0.5 h worked out at 2.33. In data set [2], the t1/2 turned out to be 0.33 h. Further, the half-life at 10 µM is 56.6 h in [3] and 1.41 h in [4]. Further, the results for the Activity result in data set [10], in data set [11] and in data set [12] were “Dose-dependent effect”, 7.88% and 11.23%, respectively.
As for `CC(=O)c1ccc(/N=N/N(C)C(=O)[C@H](Cc2ccc(O)cc2)NC(=O)OC(C)(C)C)cc1`, the Stability result in [13] is given as “Stable”. For the same molecule, the pH-dependent lipophilicity (logD) at 0.5 h in [1] was 3.85. For the same molecule, the results for the half-life at 10 µM in [3] and in [4] were 72.2 h and 9.54 h, respectively.
As for `CCOC(=O)c1ccc(/N=N/N(C)C(=O)[C@H](Cc2ccc(O)cc2)NC(C)=O)cc1`, the log distribution coefficient (logD) at 0.5 h in data set [1] was 2.96. Further, the t1/2 in data set [2] stood at 0.3 h. For the same molecule, the half-life at 10 µM is 70.3 h in data set [3] and 5.32 h in data set [4]. Further, the Activity result was “Dose-dependent effect” in [10], 17.46% in data set [11] and 21.23% in data set [12].
Turning to `CN(/N=N/c1ccc(C#N)cc1)C(=O)[C@H](Cc1ccc(O)cc1)NC(=O)OC(C)(C)C`, in [13], the Stability entry is listed as “Stable”. Also, the logD at 0.5 h in data set [1] is 3.9. Moreover, the half-life at 10 µM in [3] was 48.5 h; in data set [4], 8.1 h.
For `CC(=O)N[C@@H](Cc1ccc(O)cc1)C(=O)N(C)/N=N/c1ccc(Br)cc1`, the Stability result in data set [14] was “Stable”. Moreover, the log distribution coefficient (logD) at 0.5 h in data set [1] was found to be 3.36. Further, the t1/2 in data set [2] came out at 0.148 h. The half-life at 10 µM in [4] was 6.8 h.
Turning to `CC(=O)N[C@@H](Cc1ccc(O)cc1)C(=O)N(C)/N=N/c1ccc(C#N)cc1`, the Activity in data set [5] is 12.47%; in data set [6] it was 10.41%; in [10], “Dose-dependent effect”; in data set [11] it was 8.5%; in data set [12], 17.01%. Further, in [1], the logD at 0.5 h was determined as 2.14. The t1/2 in data set [2] turned out to be 0.26 h. Also, the half-life at 10 µM in [3] is 42.7 h; in data set [4] it was 1.23 h. In addition, in [9], the result was inactive.
For `COC(=O)c1ccc(/N=N/N(C)C(=O)[C@H](Cc2ccc(O)cc2)NC(C)=O)cc1`, the logD at 0.5 h in [1] amounted to 2.12. For the same molecule, the t1/2 in data set [2] came to 0.305 h. The half-life at 10 µM in [3] was 75.1 h; in data set [4], 2.8 h.

B1: Tyrosinase (Agaricus bisporus), O42713 (protein)
chain: MSLIATVGPTGGVKNRLNIVDFVKNEKFFTLYVRSLELLQAKEQHDYSSFFQLAGIHGLPFTEWAKERPSMNLYKAGYCTHGQVLFPTWHRTYLSVLEQILQGAAIEVAKKFTSNQTDWVQAAQDLRQPYWDWGFELMPPDEVIKNEEVNITNYDGKKISVKNPILRYHFHPIDPSFKPYGDFATWRTTVRNPDRNRREDIPGLIKKMRLEEGQIREKTYNMLKFNDAWERFSNHGISDDQHANSLESVHDDIHVMVGYGKIEGHMDHPFFAAFDPIFWLHHTNVDRLLSLWKAINPDVWVTSGRNRDGTMGIAPNAQINSETPLEPFYQSGDKVWTSASLADTARLGYSYPDFDKLVGGTKELIRDAIDDLIDERYGSKPSSGARNTAFDLLADFKGITKEHKEDLKMYDWTIHVAFKKFELKESFSLLFYFASDGGDYDQENCFVGSINAFRGTAPETCANCQDNENLIQEGFIHLNHYLARDLESFEPQDVHKFLKEKGLSYKLYSRGDKPLTSLSVKIEGRPLHLPPGEHRPKYDHTQARVVFDDVAVHVIN
For the molecule B1, the Michaelis constant (Km) in data set [15] is 250 µM; in [16] it was 280 µM; in [17], 200 µM; in data set [18] it was 220 µM; in data set [19], 540 µM. Besides, the Vmax was determined as 5.4 ×10⁻⁶ mM/min in data set [17] and 9.7 ×10⁻⁶ mM/min in data set [18]. The figures for the kcat in [17] and in data set [18] were 0.03 s⁻¹ and 0.05 s⁻¹, respectively. Further, the kcat/Km is 151 M⁻¹ s⁻¹ in [20] and 246 M⁻¹ s⁻¹ in data set [21].

One may read the logD as the decadic logarithm of the distribution of all forms, ionised or not, between an organic phase and buffer at a given pH. In general, half-life refers to how long it takes for the measured level to halve. Lower therefore signals rapid decline. Broadly, the Km is the concentration of substrate that gives half-maximal velocity. By kcat is commonly meant the maximal rate divided by the concentration of active sites. By kcat/Km is commonly meant the turnover number divided by the Michaelis constant.
